Assay results reported in patent publication US6716987B1, “Derivatives of benzofuran or benzodioxazole compounds” (Kyowa Hakko Kogyo Co., Ltd., priority 1995, dated 2004).

Legend:
[1] = tested on: cAMP-specific phosphodiesterase (PDE IV); assay: Inhibition of the PDE IV enzyme derived from a dog trachea; type: biochemical; details: test compound 10^−6 M; PDE IV from dog tracheal smooth muscle; substrate cAMP 1 μM
Description: cAMP-specific phosphodiesterase (PDE IV) was purified from a dog tracheal smooth muscle according to the method of Torphy et al. [Molecular Pharmacol., 37, 206-214 (1990)]. The PDE activity was measured by the following two steps according to the method of Kincaid and Manganiello et al. [Method in Enzymology (J. D. Corbin and R. A. Jonson, Eds.), 199, 457-470 (1988)]. Using [^3]cAMP (at a final concentration of 1 μM) as a substrate, the reaction was carried out in a standard mixture containing N,N-bis(2-hydroxyethyl)-2-aminoethanesulfonic acid (50 mM, pH=7.2), MgCl2 (1 mM), and soybean trypsin inhibitor (0.1 mg/ml). The reaction was initiated by adding the enzyme, followed by incubation at 30° C. for 10 to 30 minutes. After stopping the reaction with hydrochloric acid, the generated […] was completely converted to adenosine by 5′-nucleotidase.
The resultant was subjected to chromatography on DEAE-Sephadex A-25, and radio activity of the eluted [^3H] adenosine was counted using a scintillation counter. Each of the test drugs was dissolved in DMSO (final concentration 1.7%) and then added to the mixture.

Row | SMILES | Enzyme Inhibitory Activity (%, 10^−6 M) [1] | melting point
1 | CCOC(=O)CC1COc2c(OC)ccc(C(=O)Nc3ccccc3)c21 (racemic) [Compound 7, (±)-3-Ethoxycarbonylmethyl-7-methoxy-4-phenylaminocarbonyl-2,3-dihydrobenzofuran] | 37% | 169 to 170 °C
2 | CCOC(=O)Cc1coc2c(OC)ccc(C(=O)Nc3c(Cl)cncc3Cl)c12 [Compound 43, 3-Ethoxycarbonylmethyl-4-[(3,5-dichloro-4-pyridyl)-aminocarbonyl]-7-methoxybenzofuran] | 62% | 216 to 218 °C
3 | COc1ccc(C(=O)Nc2c(Cl)cncc2Cl)c2c1OCC2CC(=O)Nc1ccccc1 (racemic) [Compound 27, (±)-4-[(3,5-Dichloro-4-pyridyl)aminocarbonyl]-7-methoxy-3-(phenylaminocarbonyl)methyl-2,3-dihydrobenzofuran] | 75% | 296 to 300 °C (dec.)
4 | CCOC(=O)/C(=C/c1ccc(OC)c2c1CC(C)(C)O2)c1ccncc1 [Compound 87, (E)-4-[2-Ethoxycarbonyl-2-(4-pyridyl)ethenyl]-7-methoxy-2,2-dimethyl-2,3-dihydrobenzofuran] | 61% | 98 to 100 °C
5 | COc1ccc(C(=O)Nc2c(Cl)cncc2Cl)c2c1OCC2CC(=O)NCc1cccnc1 (racemic) [Compound 18, (±)-4-[(3,5-Dichloro-4-pyridyl)aminocarbonyl]-7-methoxy-3-[(3-pyridylmethyl)aminocarbonyl]methyl-2,3-dihydrobenzofuran] | 81% | 258 to 261 °C (dec.)
6 | COc1ccc(CNC(=O)CC2COc3c(OC)ccc(C(=O)Nc4c(Cl)cncc4Cl)c32)cc1 (racemic) [Compound 28, (±)-4-[(3,5-Dichloro-4-pyridyl)aminocarbonyl]-7-methoxy-3-[(4-methoxybenzyl)aminocarbonyl]methyl-2,3-dihydrobenzofuran] | 83% | 269 to 271 °C
7 | COc1ccc(C(=O)Nc2c(Cl)cncc2Cl)c2c1OCC2C(C)C (racemic) [Compound 4, (±)-4-[(3,5-Dichloro-4-pyridyl)aminocarbonyl]-7-methoxy-3-(2-propyl)-2,3-dihydrobenzofuran] | 53% | 239 to 241 °C
8 | COc1ccc(CCc2c(Cl)cncc2Cl)c2c1OC(C)(C)C2 [Compound 45, 4-[2-(3,5-Dichloro-4-pyridyl)ethyl]-7-methoxy-2,2-dimethyl-2,3-dihydrobenzofuran] | 74% | 128 to 133 °C
9 | CCOC(=O)CC1COc2c(OC)ccc(C(=O)NC3CCCCC3)c21 (racemic) [Compound 8, (±)-4-Cyclohexylaminocarbonyl-3-ethoxycarbonylmethyl-7-methoxy-2,3-dihydrobenzofuran] | 5% | 197 to 199 °C
10 | COc1ccc(C(=O)Nc2c(Cl)cncc2Cl)c2c1OCC2CC(=O)NCc1ccc(F)cc1 (racemic) [Compound 29, (±)-4-[(3,5-Dichloro-4-pyridyl)aminocarbonyl]-3-[(4-fluorobenzyl)aminocarbonyl]methyl-7-methoxy-2,3-dihydro-benzofuran] | 85% | 287 °C
11 | COc1ccc(C=Cc2c(Cl)cncc2Cl)c2c1CC1(CCCC1)O2 [Compound 131, 7-[2-(3,5-Dichloro-4-pyridyl)ethenyl]-4-methoxy-spiro[2,3-dihydrobenzofuran-2,1′-cyclopentane]] | 51% | 99 to 101 °C
12 | CCCCc1cc2c(C(=O)Nc3c(Cl)cncc3Cl)ccc(OC)c2o1 [Compound 36, 2-Butyl-4-(3,5-dichloropyridin-4-ylaminocarbonyl)-7-methoxybenzofuran] | 87% | 160 to 164 °C
13 | CCOC(=O)C(C#N)=Cc1ccc(OC)c2c1CC(C)(C)O2 [Compound 89, 4-(2-Cyano-2-ethoxycarbonylethenyl)-7-methoxy-2,2-dimethyl-2,3-dihydrobenzofuran] | 33% | 112 to 117 °C
14 | COc1ccc(C(=O)Nc2ccccc2)c2c1OCC2CC(=O)OCc1ccccc1 (racemic) [Compound 15, (±)-3-Benzyloxycarbonylmethyl-7-methoxy-4-phenylaminocarbonyl-2,3-dihydrobenzofuran] | 75% | 179 to 180 °C
15 | COc1ccc(C(=O)NC2CCCCC2)c2c1OCC2CC(=O)O (racemic) [Compound 12, (±)-3-Carboxymethyl-4-cyclohexylaminocarbonyl-7-methoxy-2,3-dihydrobenzofuran] | 8% | 246 to 247 °C
16 | COc1ccc(C(=O)Nc2c(Cl)cncc2Cl)c2c1OCC2CC(=O)Nc1c(Cl)cncc1Cl (racemic) [Compound 32, (±)-4-[(3,5-Dichloro-4-pyridyl)aminocarbonyl]-3-[(3,5-dichloro-4-pyridyl)aminocarbonyl]methyl-7-methoxy-2,3-dihydrobenzofuran] | 81% | > 300 °C
17 | COc1ccc(C(=O)Nc2c(Cl)cncc2Cl)c2c1OCC2CC(=O)N1CCN(c2ccccc2)CC1 (racemic) [Compound 21, (±)-4-[(3,5-Dichloro-4-pyridyl)aminocarbonyl]-7-methoxy-3-[(4-phenyl-1-piperazinyl)carbonyl]methyl-2,3-dihydrobenzofuran] | 84% | 224 °C
18 | COc1ccc(C#Cc2ccncc2)c2c1OC1(CCCC1)C2 [Compound 142, 7-Methoxy-4-[2-(4-pyridyl)ethynyl]-spiro[2,3-dihydrobenzofuran-2,1′-cyclopentane]] | 76% | 128 to 131 °C
19 | COc1ccc(C(Sc2ccncc2)c2ccccc2)c2c1OCC2C (racemic) [Compound 60A, (±)-7-Methoxy-3-methyl-4-[1-phenyl-1-(4-pyridylthio)-methyl]-2,3-dihydrobenzofuran] | 15% | 59 to 62 °C
20 | COc1ccc(C(=O)Cc2c(Cl)cncc2Cl)c2c1OC1(CCCC1)C2 [Compound 99, 4-[2-(3,5-Dichloro-4-pyridyl)-1-oxoethyl]-7-methoxy-spiro[2,3-dihydrobenzofuran-2,1′-cyclopentane]] | 91% | 159 to 162 °C
21 | COC(=O)c1cccc(NC(=O)/C=C/c2ccc(OC)c3c2CC2(CCCC2)O3)c1 [Compound 93, (E)-7-Methoxy-4-{2-[3-(methoxycarbony)phenyl-1-ylaminocarbonyl]ethenyl}-spiro[2,3-dihydrobenzofuran-2,1′-cyclopentane]] | 23% | 
22 | COc1ccc(CCc2ccncc2)c2c1OC1(CCCC1)O2.Cl [Compound 136, 4-Methoxy-7-[2-(4-pyridyl)ethyl]-spiro[1,3-benzodioxole-2,1′-cyclopentane].hydrochloride] | 75% | 
23 | COc1ccc(C(=O)Nc2ccncc2)c2cc(-c3ccccn3)oc12.Cl.Cl [Compound 41, 7-Methoxy-2-(2-pyridyl)-4-[(4-pyridylamino)carbonyl]-benzofuran.2 hydrochloride] | 58% | 
